Reference: EP4806899A1, “FUSED RING DERIVATIVE, PREPARATION METHOD THEREFOR AND USE THEREOF IN MEDICINE” (Shanghai Qilu Pharmaceutical Research and Development …, priority 2023, dated 2025)

How the values were obtained:
human CYP11B2 enzyme = molecular target: T1, human CYP11B2 enzyme (Homo sapiens, UniProt P19099); assay: Enzyme inhibition activity assay in G402 cells stably expressing human CYP11B2 (aldosterone production from 11-DOC, LC/MS); format: cell-based; settings: 1 µM 11-DOC, 16 hours, aldosterone detected
T1 construct: the ORF of human CYP11B1 or CYP11B2 were transfected into G402 cells; expressed in transfected cells
T1 sequence (P19099 25-503): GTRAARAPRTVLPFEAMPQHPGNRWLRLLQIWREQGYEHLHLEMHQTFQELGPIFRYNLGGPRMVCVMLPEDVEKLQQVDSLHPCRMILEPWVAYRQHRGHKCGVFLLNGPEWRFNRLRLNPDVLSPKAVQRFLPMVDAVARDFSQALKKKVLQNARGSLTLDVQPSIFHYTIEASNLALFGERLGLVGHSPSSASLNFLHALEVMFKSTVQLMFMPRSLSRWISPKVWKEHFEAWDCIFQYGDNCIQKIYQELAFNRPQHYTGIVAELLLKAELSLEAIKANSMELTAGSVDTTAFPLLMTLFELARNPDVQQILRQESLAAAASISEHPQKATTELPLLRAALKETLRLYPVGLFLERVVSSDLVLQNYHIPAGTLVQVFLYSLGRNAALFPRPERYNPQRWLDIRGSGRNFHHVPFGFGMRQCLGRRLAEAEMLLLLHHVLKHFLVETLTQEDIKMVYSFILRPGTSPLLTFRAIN
From the text: (§1) G402 cells (ATCC, CRL 1440) are epithelioid cells isolated from the kidney of a patient with renal failure and are a type of leiomyoblastoma. For the screening of highly specific CYP11B2 inhibitors, we specifically used G402 cell lines stably expressing human CYP11B2 enzyme or human CYP11B1 enzyme for experimental development.
(§2) Construction of Stably Transfected Cell Lines: Expression plasmids containing suitable promoters, suitable drug resistance markers, and the ORF of human CYP11B1 or CYP11B2 were transfected into G402 cells using standard techniques. The cells were then screened using the specific puromycin resistance marker. Monoclonal cells stably expressing human CYP11B2 were selected for expansion, and 11-deoxycorticosterone (11-DOC) was used as the specific substrate to evaluate enzyme activity based on aldosterone production. Monoclonal cells stably expressing human CYP11B1 were selected for expansion, and 11-deoxycortisol (11-DC) was used as the specific substrate, with cortisol production as the detection target for specific enzyme activity evaluation. The G402 cell lines stably expressing CYP11B1/CYP11B2 were cultured at 37 °C, 5% CO2, 95% air in complete medium (McCoy's 5A + 10% FBS + 1% PS + 0.5 µg/mL puromycin).
(§3) Enzyme Inhibition Activity Assay: CYP11B1 G402/CYP11B2 G402 cells were spread out flatly in cell culture plates. After 24 hours, the medium was changed to an enzyme testing system (DMEM/F12 + 2.5% charcoal-stripped FCS). Small molecule inhibitors at various concentrations were added. After 1 hour, appropriate concentrations of specific substrates (1 µM 11-DOC / 1 µM 11-DC) were added and co-incubated with the cells for 16 hours. Cells were then collected, and specific products were detected using LC/MS methods with an AB SCIEX TRIPLE QUAD 5500+, CTO-40S instrument (CYP11B2 enzyme detecting aldosterone; CYP11B1 enzyme detecting cortisol).
(§4) The IC50 values of the compounds were determined based on the G402 testing system. The dose-dependent inhibition of enzyme activity was calculated by plotting the added inhibitor concentration (x-axis) against the percentage of product inhibitory activity relative to the control group (y-axis) based on product formation at various compound concentrations. The following data were then fitted using the least squares method with XLfit 5.5.0 for a four-parameter logistic curve fit: [formula] • Y-axis: Percentage of product inhibitory activity relative to the control group; • logIC50: IC50 was determined using XLFit.
(§5) The maximum enzyme activity corresponds to the amount of control product steroid/aldosterone in the absence of inhibitor, set as 100%. The minimum enzyme activity corresponds to the amount of reference control product steroid/aldosterone in the presence of inhibitor. Table 3 Inhibitory Activity of the Compounds of the Present Disclosure on CYP11B2 and CYP11B1

human CYP11B1 enzyme = molecular target: T2, human CYP11B1 enzyme (Homo sapiens, UniProt P15538); assay: Enzyme inhibition activity assay in G402 cells stably expressing human CYP11B1 (cortisol production from 11-DC, LC/MS); format: cell-based; settings: 1 µM 11-DC, 16 hours, cortisol detected
T2 construct: the ORF of human CYP11B1 or CYP11B2 were transfected into G402 cells; expressed in transfected cells
T2 sequence (P15538 25-503): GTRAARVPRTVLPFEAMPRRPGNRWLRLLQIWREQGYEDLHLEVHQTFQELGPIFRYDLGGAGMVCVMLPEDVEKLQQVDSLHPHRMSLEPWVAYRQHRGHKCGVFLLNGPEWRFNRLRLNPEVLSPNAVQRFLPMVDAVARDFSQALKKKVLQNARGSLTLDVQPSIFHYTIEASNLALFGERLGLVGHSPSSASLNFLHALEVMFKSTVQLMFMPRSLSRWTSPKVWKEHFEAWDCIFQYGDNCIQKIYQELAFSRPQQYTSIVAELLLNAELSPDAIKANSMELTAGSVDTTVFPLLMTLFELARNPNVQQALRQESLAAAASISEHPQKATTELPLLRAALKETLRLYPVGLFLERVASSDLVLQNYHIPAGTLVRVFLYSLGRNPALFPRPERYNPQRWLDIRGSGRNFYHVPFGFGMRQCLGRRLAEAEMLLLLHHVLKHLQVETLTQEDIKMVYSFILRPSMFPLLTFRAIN
From the text: as §1, §2, §3, §4, §5

CCC(=O)N[C@@H]1COCc2c(-c3ccc4c(c3)CCC(=O)N4C)cncc21 [Compound A01]
IC50 (human CYP11B2 enzyme): 41.7 nM

CCC(=O)N[C@@H]1CC=Cc2c(-c3ccc4c(c3)CCC(=O)N4C)cncc21 [Compound A04-P1]
IC50 (human CYP11B2 enzyme): 5.6 nM | IC50 (human CYP11B1 enzyme): 244 nM

[2H]C([2H])([2H])NC(=O)N[C@@H]1CCOc2c(-c3ccc4c(c3)CCC(=O)N4C)cncc21 [Compound A11]
IC50 (human CYP11B2 enzyme): 7.3 nM | IC50 (human CYP11B1 enzyme): 1260 nM

CN(C)C(=O)N[C@@H]1CCOc2c(-c3ccc4c(c3)CCC(=O)N4C)cncc21 [Compound A12]
IC50 (human CYP11B2 enzyme): 12.6 nM | IC50 (human CYP11B1 enzyme): 3120 nM

[2H]C([2H])([2H])OC(=O)N[C@@H]1CCOc2c(-c3ccc4c(c3)CCC(=O)N4C)cncc21 [Compound A13]
IC50 (human CYP11B2 enzyme): 4.5 nM | IC50 (human CYP11B1 enzyme): 381 nM

COC(=O)N[C@@H]1CCOc2c(-c3ccc4c(c3)CCC(=O)N4C)cncc21 [Compound A14]
IC50 (human CYP11B2 enzyme): 2.3 nM | IC50 (human CYP11B1 enzyme): 202 nM

[2H]C([2H])([2H])NC(=O)N[C@@H]1CCCc2c(-c3ccc4c(ccc(=O)n4C)c3)cncc21 [Compound A15]
IC50 (human CYP11B2 enzyme): 9.9 nM

[2H]C([2H])([2H])NC(=O)N[C@@H]1CCOc2c(-c3ccc4c(ccc(=O)n4C)c3)cncc21 [Compound A17]
IC50 (human CYP11B2 enzyme): 23.1 nM

[2H]C([2H])([2H])NC(=O)N[C@@H]1CCOc2c(-c3ccc4c(c3)COC(=O)N4C)cncc21 [Compound A18]
IC50 (human CYP11B2 enzyme): 7.5 nM | IC50 (human CYP11B1 enzyme): 517 nM

CCC(=O)N[C@@H]1CCOc2c(-c3ccc4c(c3)OCC(=O)N4C)cncc21 [Compound A19]
IC50 (human CYP11B2 enzyme): 35.5 nM

CCC(=O)N[C@@H]1CCOc2c(-c3cc(F)c4c(ccc(=O)n4C)c3)cncc21 [Compound A20]
IC50 (human CYP11B2 enzyme): 29.1 nM

CNC(=O)N[C@@H]1CCCc2c(-c3ccc4c(ccc(=O)n4C)c3)cncc21 [Compound A21]
IC50 (human CYP11B2 enzyme): 9.4 nM | IC50 (human CYP11B1 enzyme): 739 nM

[2H]C([2H])([2H])NC(=O)N[C@@H]1CCCc2c(-c3cc(F)c4c(ccc(=O)n4C)c3)cncc21 [Compound A22]
IC50 (human CYP11B2 enzyme): 7.6 nM | IC50 (human CYP11B1 enzyme): 1190 nM

CN(C)C(=O)N[C@@H]1CCCc2c(-c3ccc4c(ccc(=O)n4C)c3)cncc21 [Compound A23]
IC50 (human CYP11B2 enzyme): 12.5 nM | IC50 (human CYP11B1 enzyme): 1920 nM

CNC(=O)N[C@@H]1CCCc2c(-c3ccc4c(c3)OCC(=O)N4C)cncc21 [Compound A24]
IC50 (human CYP11B2 enzyme): 11.7 nM | IC50 (human CYP11B1 enzyme): 1550 nM

[2H]C([2H])([2H])NC(=O)N[C@@H]1CCCc2c(-c3ccc4c(c3)OCC(=O)N4C)cncc21 [Compound A25]
IC50 (human CYP11B2 enzyme): 14.9 nM | IC50 (human CYP11B1 enzyme): 2150 nM

CN(C)C(=O)N[C@@H]1CCCc2c(-c3ccc4c(c3)OCC(=O)N4C)cncc21 [Compound A26]
IC50 (human CYP11B2 enzyme): 19 nM

[2H]C([2H])([2H])OC(=O)N[C@@H]1CCCc2c(-c3ccc4c(ccc(=O)n4C)c3)cncc21 [Compound A27]
IC50 (human CYP11B2 enzyme): 5 nM | IC50 (human CYP11B1 enzyme): 213 nM

[2H]C([2H])([2H])OC(=O)N[C@@H]1CCCc2c(-c3ccc4c(c3)COC(=O)N4C)cncc21 [Compound A28]
IC50 (human CYP11B2 enzyme): 3.6 nM | IC50 (human CYP11B1 enzyme): 111 nM

[2H]C([2H])([2H])OC(=O)N[C@@H]1CCCc2c(-c3ccc4c(c3)OCC(=O)N4C)cncc21 [Compound A29]
IC50 (human CYP11B2 enzyme): 8.8 nM | IC50 (human CYP11B1 enzyme): 479 nM

[2H]C([2H])([2H])NC(=O)N[C@@H]1CCOc2c(-c3ccc4c(c3)OCC(=O)N4C)cncc21 [Compound A32]
IC50 (human CYP11B2 enzyme): 34.7 nM

CN(C)C(=O)N[C@@H]1CCCc2c(-c3ccc4c(c3)COC(=O)N4C)cncc21 [Compound A33]
IC50 (human CYP11B2 enzyme): 9.7 nM | IC50 (human CYP11B1 enzyme): 312 nM

CNC(=O)N[C@@H]1CCCc2c(-c3ccc4c(c3)COC(=O)N4C)cncc21 [Compound A34]
IC50 (human CYP11B2 enzyme): 7.5 nM | IC50 (human CYP11B1 enzyme): 294 nM

COC(=O)N[C@@H]1CCOc2c(-c3ccc4c(c3)cc(C#N)n4C)cncc21 [Compound A35]
IC50 (human CYP11B2 enzyme): 1.4 nM | IC50 (human CYP11B1 enzyme): 184 nM

[2H]C([2H])([2H])OC(=O)N[C@@H]1CCOc2c(-c3ccc4c(c3)cc(C#N)n4C)cncc21 [Compound A36]
IC50 (human CYP11B2 enzyme): 1.3 nM | IC50 (human CYP11B1 enzyme): 136 nM

[2H]C([2H])([2H])OC(=O)N[C@@H]1CCOc2c(-c3ccc4c(c3)OCC(=O)N4C)cncc21 [Compound A41]
IC50 (human CYP11B2 enzyme): 28.9 nM

COC(=O)N[C@@H]1CCOc2c(-c3ccc4c(c3)OCC(=O)N4C)cncc21 [Compound A44]
IC50 (human CYP11B2 enzyme): 21.9 nM

CCC(=O)N[C@@H]1CCOc2c(-c3cc(F)c4c(c3)cc(C#N)n4C)cncc21 [Compound A55]
IC50 (human CYP11B2 enzyme): 4.5 nM

CCC(=O)N[C@@H]1CCOc2c(-c3cc(Cl)c4c(c3)cc(C#N)n4C)cncc21 [Compound A56]
IC50 (human CYP11B2 enzyme): 11.6 nM

CCC(=O)NC1CCCc2c(-c3cnc4c(c3)CCCN4C(N)=O)cncc21 (stereo not drawn) [Compound C02]
IC50 (human CYP11B2 enzyme): 16.9 nM

CCC(=O)N[C@@H]1CCCc2c(-c3ccc4c(c3)cc(F)c(=O)n4C)cncc21 [Compound C16]
IC50 (human CYP11B2 enzyme): 43.3 nM

CCC(=O)N[C@@H]1CCCc2c(-c3ccc4c(cnn4C)c3)cncc21 [Compound C21]
IC50 (human CYP11B2 enzyme): 26.5 nM

CCC(=O)N[C@@H]1CCCc2c(-c3ccc4c(c3)CC(=O)N4C)cncc21 [Compound C24]
IC50 (human CYP11B2 enzyme): 24.2 nM

CCC(=O)N[C@@H]1CCCc2c(-c3ccc4c(ccc(=O)n4C(F)F)c3)cncc21 [Compound C33]
IC50 (human CYP11B2 enzyme): 32.7 nM

CCC(=O)N[C@@H]1CCCc2c(-c3ccc4c(ccc(=O)n4C)c3F)cncc21 [Compound C45]
IC50 (human CYP11B2 enzyme): 33 nM

CNC(=O)N[C@@H]1CCCc2c(-c3ccc4c(c3)CCC(=O)N4C)cncc21 [Compound D01]
IC50 (human CYP11B2 enzyme): 5.9 nM

CN1C(=O)CCc2cc(-c3cncc4c3CCC[C@H]4N3CCCC3=O)ccc21 [Compound D03]
IC50 (human CYP11B2 enzyme): 8.1 nM

COC(=O)N[C@@H]1CCCc2c(-c3ccc4c(c3)CCC(=O)N4C)cncc21 [Compound D05]
IC50 (human CYP11B2 enzyme): 3.4 nM

C[C@@H](F)C(=O)N[C@@H]1CCCc2c(-c3ccc4c(c3)CCC(=O)N4C)cncc21 [Compound D07-P1]
IC50 (human CYP11B2 enzyme): 33.9 nM

CCNC(=O)N[C@@H]1CCCc2c(-c3ccc4c(c3)CCC(=O)N4C)cncc21 [Compound D09]
IC50 (human CYP11B2 enzyme): 28.2 nM

CN1C(=O)CCc2cc(-c3cncc4c3CCC[C@H]4N3CCC4(CC4)C3=O)ccc21 [Compound D14]
IC50 (human CYP11B2 enzyme): 13 nM

CN1C(=O)CCc2cc(-c3cncc4c3CCC[C@H]4NC(=O)N3CCC3)ccc21 [Compound D17]
IC50 (human CYP11B2 enzyme): 33.3 nM
